Test results from US20250215029A1 (Recludix Pharma, Inc., priority 2022, published 2025).

target: T1, pY641-STAT6 in PBMC (Homo sapiens, UniProt P42226); experiment: MSD-pSTAT-PBMC Assay (pSTAT6, IL-4 stimulated); type: cell-based; settings: PBMC, compound 3 hrs, then 1 ng/mL IL-4 for 10 min; Table 115; read-out: STAT6
T1 construct: Cryopreserved Peripheral Blood Mononuclear Cells (PBMC) are from AllCells; host or cells: cryopreserved PBMC
T1 sequence (P42226 1-847): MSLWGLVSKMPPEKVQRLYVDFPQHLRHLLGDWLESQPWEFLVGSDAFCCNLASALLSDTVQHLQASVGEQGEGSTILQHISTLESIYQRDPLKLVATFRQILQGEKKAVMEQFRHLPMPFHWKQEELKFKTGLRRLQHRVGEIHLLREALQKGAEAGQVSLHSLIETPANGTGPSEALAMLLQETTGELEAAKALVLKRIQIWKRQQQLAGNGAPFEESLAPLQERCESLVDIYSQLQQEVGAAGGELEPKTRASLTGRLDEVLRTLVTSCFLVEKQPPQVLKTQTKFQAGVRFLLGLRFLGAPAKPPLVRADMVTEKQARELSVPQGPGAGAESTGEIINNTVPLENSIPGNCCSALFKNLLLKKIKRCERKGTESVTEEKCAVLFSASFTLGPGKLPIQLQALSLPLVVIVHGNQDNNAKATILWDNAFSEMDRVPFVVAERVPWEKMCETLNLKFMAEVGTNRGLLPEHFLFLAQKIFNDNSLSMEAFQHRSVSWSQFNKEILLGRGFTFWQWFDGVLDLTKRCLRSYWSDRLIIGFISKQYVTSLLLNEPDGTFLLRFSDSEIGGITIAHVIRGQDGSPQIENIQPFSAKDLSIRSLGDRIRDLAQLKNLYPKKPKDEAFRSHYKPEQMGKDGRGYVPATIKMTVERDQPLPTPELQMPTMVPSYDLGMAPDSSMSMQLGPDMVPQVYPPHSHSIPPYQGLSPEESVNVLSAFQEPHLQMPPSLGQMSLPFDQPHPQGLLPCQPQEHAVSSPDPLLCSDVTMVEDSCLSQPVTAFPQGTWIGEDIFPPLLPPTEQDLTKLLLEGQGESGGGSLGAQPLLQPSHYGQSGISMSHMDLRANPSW
In short: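 MSD electrochemiluminescence read-out: total STAT captured, probed with anti-pY641-STAT6 or anti-pY705-STAT3. Human PBMC, 3 h compound pretreatment, 10 min stimulation (IL-4 1 ng/mL or IL-6 10 ng/mL). Unstimulated signal subtracted, DMSO-normalized, variable-slope IC50.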

Which IC50 does the source give for `CC(C)OC(=O)OCOP(=O)(OCCSC(=O)C(C)(C)C)C(F)(F)c1ccc2sc(C(=O)N[C@H]3CCCC[C@H]4CC[C@@H](C(=O)N5C[C@@H](C#N)[C@H](c6ccccc6)C5)N4C3=O)cc2c1` (single isomer, unassigned) [Compound 1012] here?
Its IC50 is under 100 nM.

For `CCCOC(=O)[C@H](C)NP(=O)(Oc1ccccc1)[C@@H](F)c1ccc2sc(C(=O)N[C@H]3CCC[C@H]4CC[C@@H](C(=O)N5C[C@H](c6ccc(C)cc6)[C@@H](C#N)C56CC6)N4C3=O)cc2c1` (stereo partly drawn) [Compound 479], which IC50 is on record?
The IC50 was under 100 nM.

same assay, conditions: STAT6, PBMC, compound 3 hrs, then 1 ng/mL IL-4 for 10 min; Table 115

Which IC50 does the source give for `C[C@H](NP(=O)(Oc1ccccc1)[C@@H](F)c1ccc2sc(C(=O)N[C@H]3CCCC[C@H]4CC[C@@H](C(=O)N5C[C@@H](c6cccnc6)CC56CC6)N4C3=O)cc2c1)C(=O)OC1CC1` (stereo partly drawn) [Compound 418, cyclopropyl (((R)-fluoro(2-(((3S,6S,10aS)-5-oxo-3-((R)-6-(pyridin-3-yl)-4-azaspiro[2.4]heptane-4-carbonyl)decahydropyrrolo[1,2-a]azocin-6-yl)carbamoyl)benzo [b]thiophen-5-yl)methyl)(phenoxy)phosphoryl)-L-alaninate] here?
Its IC50 is under 100 nM.

For `CCCOC(=O)[C@H](C)NP(=O)(Oc1ccccc1)C(F)c1ccc2sc(C(=O)N[C@H]3CCCC[C@H]4CCC[C@@H](C(=O)N5CC(C#N)[C@H](c6ccccc6)C5)N4C3=O)cc2c1` (relative stereo) [Compound 269, propyl (((2-(((4S,7S,11aS)-4-((rel-trans)-3-cyano-4-phenylpyrrolidine-1-carbonyl)-6-oxodecahydro-2H-pyrido[1,2-a]azocin-7-yl)carbamoyl)benzo [b]thiophen-5-yl)fluoromethyl) (phenoxy)phosphoryl)-L-alaninate], which IC50 is on record?
The IC50 was under 100 nM.

How did the IC50 turn out when `C[C@H](NP(=O)(Oc1ccccc1)[C@@H](F)c1ccc2sc(C(=O)N[C@H]3CCCC[C@H]4CC[C@@H](C(=O)N5C[C@@H](c6cccnc6)CC56CC6)N4C3=O)cc2c1)C(=O)OCC(C)(C)C` (stereo partly drawn) [Compound 477, neopentyl (((R)-fluoro(2-(((3S,6S,10aS)-5-oxo-3-((R)-6-(pyridin-3-yl)-4-azaspiro[2.4]heptane-4-carbonyl)decahydropyrrolo[1,2-a]azocin-6-yl)carbamoyl)benzo [b]thiophen-5-yl)methyl)(phenoxy)phosphoryl)-L-alaninate] was run?
The IC50 was under 100 nM.

Which IC50 does the source give for `CCCOC(=O)[C@H](C)NP(=O)(Oc1ccccc1)[C@@H](F)c1ccc2sc(C(=O)N[C@H]3CCC[C@H]4CC[C@@H](C(=O)N5C[C@@H](c6cccc(C)c6)[C@H](C#N)C56CC6)N4C3=O)cc2c1` (single isomer, unassigned) [Compound 341] here?
The IC50 was under 100 nM.

Which IC50 does the source give for `CCCOC(=O)[C@H](C)NP(=O)(Oc1ccccc1)[C@@H](F)c1ccc2sc(C(=O)N[C@H]3CC[C@H](N4CCC4)C[C@H]4CC[C@@H](C(=O)N5C[C@H](c6ccccc6)[C@@H](C#N)C56CC6)N4C3=O)cc2c1` (stereo partly drawn) [Compound 490, propyl (((R)-(2-(((3S,6S,9S,10aR)-9-(azetidin-1-yl)-3-((6S,7R)-7-cyano-6-phenyl-4-azaspiro[2.4]heptane-4-carbonyl)-5-oxodecahydropyrrolo [1,2-a]azocin-6-yl)carbamoyl)benzo [b]thiophen-5-yl)fluoromethyl) (phenoxy)phosphoryl)-L-alaninate] here?
Its IC50 is 100 to 1000 nM.

`CCCOC(=O)[C@H](C)NP(=O)(Oc1ccccc1)[C@@H](F)c1ccc2sc(C(=O)N[C@H]3CCCC[C@H]4CC[C@@H](C(=O)N5C(=O)N(c6ccc(C(F)(F)F)nc6)C(=O)C56CC6)N4C3=O)cc2c1` (stereo partly drawn) [Compound 327, propyl (((R)-(2-(((3S,6S,10aS)-3-(5,7-dioxo-6-(6-(trifluoromethyl)pyridin-3-yl)-4,6-diazaspiro[2.4]heptane-4-carbonyl)-5-oxodecahydropyrrolo [1,2-a]azocin-6-yl)carbamoyl)benzo [b]thiophen-5-yl)fluoromethyl) (phenoxy)phosphoryl)-L-alaninate] was tested. Which IC50 did it give?
The IC50 was over 3000 nM.

For `CCCOC(=O)[C@H](C)NP(=O)(Cc1ccc2ccc(C(=O)N[C@H]3CCCC[C@H]4CC[C@@H](C(=O)N5CCC(c6cccnc6)C5)N4C3=O)cc2c1)Oc1ccccc1` (stereo partly drawn) [Compound 305, propyl (((7-(((3S,6S,10aS)-5-oxo-3-(3-(pyridin-3-yl)pyrrolidine-1-carbonyl)decahydropyrrolo[1,2-a]azocin-6-yl)carbamoyl)naphthalen-2-yl)methyl)(phenoxy)phosphoryl)-L-alaninate], which IC50 is on record?
Its IC50 is 100 to 1000 nM.

How did the IC50 turn out when `CCCOC(=O)[C@H](C)NP(=O)(Oc1ccccc1)[C@@H](F)c1ccc2sc(C(=O)N[C@H]3CCC[C@H]4CC[C@@H](C(=O)N5C[C@@H](c6cccnc6)CC56CC6)N4C3=O)cc2c1` (stereo partly drawn) [Compound 379, propyl (((R)-fluoro(2-(((3S,6S,9aS)-5-oxo-3-((R)-6-(pyridin-3-yl)-4-azaspiro[2.4]heptane-4-carbonyl)octahydro-1H-pyrrolo[1,2-a]azepin-6-yl)carbamoyl)benzo [b]thiophen-5-yl)methyl)(phenoxy)phosphoryl)-L-alaninate] was run?
Its IC50 is under 100 nM.

`CCCOC(=O)[C@H](C)NP(=O)(Oc1ccccc1)[C@H](F)c1ccc2sc(C(=O)N[C@H]3CCCC[C@H]4CC[C@@H](C(=O)N5CC(c6cccnc6)CC56CC6)N4C3=O)cc2c1` (stereo in doubt) [Compound 458, propyl (((S)-fluoro(2-(((3S,6S,10aS)-5-oxo-3-((R)-6-(pyridin-3-yl)-4-azaspiro[2.4]heptane-4-carbonyl)decahydropyrrolo[1,2-a]azocin-6-yl)carbamoyl)benzo [b]thiophen-5-yl)methyl)(phenoxy)phosphoryl)-L-alaninate] was tested. Which IC50 did it give?
Its IC50 is under 100 nM.

With `CC(C)OC(=O)[C@H](C)NP(=O)(Oc1ccccc1)[C@@H](F)c1ccc2sc(C(=O)N[C@H]3CCCC[C@H]4CC[C@@H](C(=O)N5C[C@@H](c6cccnc6)CC56CC6)N4C3=O)cc2c1` (stereo partly drawn) [Compound 474, isopropyl (((R)-fluoro(2-(((3S,6S,10aS)-5-oxo-3-((R)-6-(pyridin-3-yl)-4-azaspiro[2.4]heptane-4-carbonyl)decahydropyrrolo[1,2-a]azocin-6-yl)carbamoyl)benzo [b]thiophen-5-yl)methyl)(phenoxy)phosphoryl)-L-alaninate] as the compound, how does the IC50 read?
Its IC50 is under 100 nM.

For `COCCOC(=O)[C@H](C)NP(=O)(Oc1ccccc1)[C@@H](F)c1ccc2sc(C(=O)N[C@H]3CCCC[C@H]4CC[C@@H](C(=O)N5C[C@@H](c6cccnc6)CC56CC6)N4C3=O)cc2c1` (stereo partly drawn) [Compound 378, 2-methoxyethyl (((R)-fluoro(2-(((3S,6S,10aS)-5-oxo-3-((R)-6-(pyridin-3-yl)-4-azaspiro[2.4]heptane-4-carbonyl)decahydropyrrolo[1,2-a]azocin-6-yl)carbamoyl)benzo [b]thiophen-5-yl)methyl)(phenoxy)phosphoryl)-L-alaninate], which IC50 is on record?
Its IC50 is under 100 nM.

With `CCCOC(=O)[C@H](C)NP(=O)(Oc1ccccc1)C(F)c1ccc2ccc(C(=O)N[C@H]3CCCC[C@H]4CC[C@@H](C(=O)N5CC(c6cccnc6)CC56CC6)N4C3=O)cc2c1` (stereo partly drawn) [Compound 429, propyl ((fluoro(7-(((3S,6S,10aS)-5-oxo-3-(6-(pyridin-3-yl)-4-azaspiro[2.4]heptane-4-carbonyl)decahydropyrrolo[1,2-a]azocin-6-yl)carbamoyl)naphthalen-2-yl)methyl)(phenoxy)phosphoryl)-L-alaninate] as the compound, how does the IC50 read?
The IC50 was under 100 nM.

How did the IC50 turn out when `CCCOC(=O)[C@H](C)NP(=O)(Oc1ccccc1)[C@@H](F)c1ccc2sc(C(=O)N[C@H]3CCC[C@H]4CC[C@@H](C(=O)N5C[C@H](c6cncc(Cl)c6)[C@@H](C#N)C56CC6)N4C3=O)cc2c1` (single isomer, unassigned) [Compound 368] was run?
The IC50 was over 3000 nM.
